We go through 32 compounds from ChEMBL document CHEMBL1148458, “Incorporating molecular shape into the alignment-free Grid-Independent Descriptors” (J Med Chem, 2004).

Molecules are shown by their SMILES. pKi: −log10 of the molar value.

One assay deals with T1, Adenosine receptor A1 (Homo sapiens, UniProt P30542).
T1 sequence (P30542 whole entry): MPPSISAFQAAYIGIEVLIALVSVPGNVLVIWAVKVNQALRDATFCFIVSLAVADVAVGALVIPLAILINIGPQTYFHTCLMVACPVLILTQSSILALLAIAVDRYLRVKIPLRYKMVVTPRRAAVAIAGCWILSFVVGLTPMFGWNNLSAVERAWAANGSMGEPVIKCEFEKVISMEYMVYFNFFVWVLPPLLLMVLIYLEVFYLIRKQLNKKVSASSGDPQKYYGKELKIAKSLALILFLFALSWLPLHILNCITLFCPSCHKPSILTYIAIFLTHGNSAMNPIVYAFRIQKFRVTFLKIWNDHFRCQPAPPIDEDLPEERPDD
The assay is described as follows: Binding affinity at adenosine A1 receptor.
The compound `CC1C(=O)c2nc(CCCN3N=C(c4ccccc4)CCC3=O)[nH]c2N(C)C1=O` (stereo not given) gave a pKi of 4.97. The same measure, in the same setting: for `CCCC1C(=O)c2nc(CCN3N=C(Cl)CCC3=O)[nH]c2N(C)C1=O` (stereo not given) the value was 6.33; for `CC1C(=O)c2nc(CCN3N=C(c4ccccc4)CCC3=O)[nH]c2N(C)C1=O` (stereo not given), 5.21; for `CC1C(=O)c2nc(CCCN3N=C(Cl)CCC3=O)[nH]c2N(C)C1=O` (stereo not given), 5.06. Still for that read-out and setting: in the case of `CC1C(=O)c2nc(CCCCN3N=C(Cl)CCC3=O)[nH]c2N(C)C1=O` (stereo not given) it was 6.43; in that of `CCCC1C(=O)c2nc(CCCCN3N=C(c4ccccc4)CCC3=O)[nH]c2N(C)C1=O` (stereo not given), 6.42. On the same count and under the same terms, in the case of `CCCC1C(=O)c2nc(CCCN3N=C(Cl)CCC3=O)[nH]c2N(C)C1=O` (stereo not given) it was 5.92; in that of `CCCC1C(=O)c2nc(CCN3N=C(c4ccccc4)CCC3=O)[nH]c2N(C)C1=O` (stereo not given), 6.12; in that of `CC1C(=O)c2nc(CN3N=C(Cl)CCC3=O)[nH]c2N(C)C1=O` (stereo not given), less than 4.00. Regarding `CC1C(=O)c2nc(CCCN3N=CCCC3=O)[nH]c2N(C)C1=O` (stereo not given), the pKi was 4.90.

The compound `CCCC1C(=O)c2nc(CN3N=C(c4ccccc4)CCC3=O)[nH]c2N(C)C1=O` (stereo not given) showed a pKi of 5.64.

On to `CC1C(=O)c2nc(CCN3N=C(Cl)CCC3=O)[nH]c2N(C)C1=O` (stereo not given), for which the pKi is 4.83.

`CCCC1C(=O)c2nc(CCCN3N=C(c4ccccc4)CCC3=O)[nH]c2N(C)C1=O` (stereo not given) gave a pKi of 6.09. Still for that read-out and setting: in the case of `CC1C(=O)c2nc(CCCCN3N=C(c4ccccc4)CCC3=O)[nH]c2N(C)C1=O` (stereo not given) it was 5.67. Still for that read-out and setting: for `CCCC1C(=O)c2nc(CCCCN3N=C(Cl)CCC3=O)[nH]c2N(C)C1=O` (stereo not given) the value was 6.72. As to `CCCC1C(=O)c2nc(CN3N=C(Cl)CCC3=O)[nH]c2N(C)C1=O` (stereo not given), the pKi is 5.04.

Turning to `CC1C(=O)c2nc(CCN3N=CCCC3=O)[nH]c2N(C)C1=O` (stereo not given), the negative logarithm of the Ki (pKi) is 4.89. Same read-out and setting: for `CC1C(=O)c2nc(CN3N=C(c4ccccc4)CCC3=O)[nH]c2N(C)C1=O` (stereo not given) the value was 4.27.

The next assay deals with Plasmepsin II (Plasmodium falciparum, UniProt P46925). The assay is described as follows: Binding affinity towards plasmepsin-2 in Plasmodium falciparum.
Plasmepsin II, sequence (P46925 whole entry): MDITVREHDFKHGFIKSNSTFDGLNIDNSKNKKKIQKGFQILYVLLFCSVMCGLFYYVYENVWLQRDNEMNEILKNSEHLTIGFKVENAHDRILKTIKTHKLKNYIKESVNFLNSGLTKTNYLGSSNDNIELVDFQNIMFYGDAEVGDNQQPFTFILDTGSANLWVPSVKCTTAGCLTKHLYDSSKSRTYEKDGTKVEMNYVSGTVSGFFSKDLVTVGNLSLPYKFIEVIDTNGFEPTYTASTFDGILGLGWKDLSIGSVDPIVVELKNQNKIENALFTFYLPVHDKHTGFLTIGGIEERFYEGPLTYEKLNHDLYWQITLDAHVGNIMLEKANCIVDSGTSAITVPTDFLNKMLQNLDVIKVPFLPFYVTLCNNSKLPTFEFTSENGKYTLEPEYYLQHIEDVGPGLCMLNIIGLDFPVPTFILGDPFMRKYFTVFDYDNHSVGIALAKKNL
Compound `CCCCNC(=O)CC(O)C(Cc1ccccc1)NC(=O)C(NC(=O)COc1ccc2ccccc2c1)c1ccccc1` (stereo not given) showed a pKi of 5.24.

`CCC(C)C(NC(=O)CN1CCC(C(N)=O)(c2ccccc2)CC1)C(=O)NC(CC(C)C)C(O)CC(=O)NCCCc1ccccc1` (stereo not given) had a pKi of 6.22.

The compound `CCCCNC(=O)CC(O)C(Cc1ccccc1)NC(=O)C(CC(C)C)NC(=O)COc1ccc2ccccc2c1` (stereo not given) had a pKi of 5.25.

`CCCCNC(=O)CC(O)C(Cc1ccccc1)NC(=O)C(Cc1ccccc1)NC(=O)COc1ccc2ccccc2c1` (stereo not given): the pKi was 4.92. Still for that read-out and setting: in the case of `CCCCNC(=O)CC(O)C(CC(C)C)NC(=O)C(CCC(N)=O)NC(=O)COc1ccc2ccccc2c1` (stereo not given) it was less than 4.52. Still for that read-out and setting: in the case of `CCCCNC(=O)CC(O)C(Cc1ccccc1)NC(=O)C(NC(=O)Cc1ccc2ccccc2c1)C(C)CC` (stereo not given) it was 7.30; in that of `CCCCNC(=O)CC(O)C(CC(C)C)NC(=O)C(NC(=O)CN1CCC(C(N)=O)(c2ccccc2)CC1)C(C)CC` (stereo not given), 6.39; in that of `CCCCNC(=O)CC(O)C(CC(C)C)NC(=O)C(NC(=O)Cc1cc(OC)ccc1C)C(C)CC` (stereo not given), 6.66.

`CCCCNC(=O)CC(O)C(CC(C)C)NC(=O)C(NC(=O)Cc1cc(OC)ccc1C)C(C)C` (stereo not given): the pKi was 6.30. Still for that read-out and setting: in the case of `CCCCNC(=O)CC(O)C(CC(C)C)NC(=O)C(NC(=O)Cc1ccc2ccccc2c1)C(C)CC` (stereo not given) it was 7.05. The same measure, in the same setting: in the case of `CCCCNC(=O)CC(O)C(CC(C)C)NC(=O)C(NC(=O)COc1ccc2ccccc2c1)c1ccccc1` (stereo not given) it was 6.25; in that of `CCCCNC(=O)CC(O)C(CC(C)C)NC(=O)C(NC(=O)Cc1cc(OC)ccc1C)c1ccccc1` (stereo not given), 6.23; in that of `CCCCNC(=O)C[C@H](O)[C@H](Cc1ccccc1)NC(=O)[C@@H](NC(=O)COc1ccc2ccccc2c1)C(C)CC` (stereo not given in full), 6.96.

The target in the next assay is Cathepsin D (Homo sapiens, UniProt P07339). Nature of the assay: Binding affinity towards human cathepsin D.
Cathepsin D, sequence (P07339 65-162 limits assumed): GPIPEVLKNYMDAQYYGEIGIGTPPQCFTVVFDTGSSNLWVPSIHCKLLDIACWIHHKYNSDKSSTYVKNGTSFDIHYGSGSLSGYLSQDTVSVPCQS
Cathepsin D, sequence (P07339 169-412 limits assumed): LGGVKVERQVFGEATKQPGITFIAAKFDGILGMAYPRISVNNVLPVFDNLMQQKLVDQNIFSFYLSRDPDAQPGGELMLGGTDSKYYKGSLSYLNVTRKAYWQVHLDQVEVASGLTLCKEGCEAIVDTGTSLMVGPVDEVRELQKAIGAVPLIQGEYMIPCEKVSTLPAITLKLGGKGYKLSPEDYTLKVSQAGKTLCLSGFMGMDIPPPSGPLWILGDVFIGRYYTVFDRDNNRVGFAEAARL
Compound `CCCCNC(=O)CC(O)C(Cc1ccccc1)NC(=O)C(NC(=O)COc1ccc2ccccc2c1)c1ccccc1` (stereo not given) gave a pKi of 6.96. Still for that read-out and setting: for `CCC(C)C(NC(=O)CN1CCC(C(N)=O)(c2ccccc2)CC1)C(=O)NC(CC(C)C)C(O)CC(=O)NCCCc1ccccc1` (stereo not given) the value was 5.41. Same read-out and setting: for `CCCCNC(=O)CC(O)C(Cc1ccccc1)NC(=O)C(CC(C)C)NC(=O)COc1ccc2ccccc2c1` (stereo not given) the value was 6.04. The same measure, in the same setting: in the case of `CCCCNC(=O)CC(O)C(Cc1ccccc1)NC(=O)C(Cc1ccccc1)NC(=O)COc1ccc2ccccc2c1` (stereo not given) it was 5.89; in that of `CCCCNC(=O)CC(O)C(CC(C)C)NC(=O)C(CCC(N)=O)NC(=O)COc1ccc2ccccc2c1` (stereo not given), 6.70; in that of `CCCCNC(=O)CC(O)C(Cc1ccccc1)NC(=O)[C@@H](NC(=O)c1ccc(CN2CCCC2)cc1)[C@@H](C)CC` (stereo not given in full), 5.92. `CCCCNC(=O)CC(O)C(Cc1ccccc1)NC(=O)C(NC(=O)Cc1ccc2ccccc2c1)C(C)CC` (stereo not given) gave a pKi of 6.49.

In the case of `CCCCNC(=O)CC(O)C(CC(C)C)NC(=O)C(NC(=O)CN1CCC(C(N)=O)(c2ccccc2)CC1)C(C)CC` (stereo not given), the pKi was 5.26. For `CCCCNC(=O)CC(O)C(CC(C)C)NC(=O)C(NC(=O)Cc1cc(OC)ccc1C)C(C)CC` (stereo not given), the pKi was 5.62. On the same count and under the same terms, in the case of `CCCCNC(=O)CC(O)C(CC(C)C)NC(=O)C(NC(=O)Cc1cc(OC)ccc1C)C(C)C` (stereo not given) it was 5.80; in that of `CCCCNC(=O)CC(O)C(CC(C)C)NC(=O)C(NC(=O)Cc1ccc2ccccc2c1)C(C)CC` (stereo not given), 7.30; in that of `CCCCNC(=O)CC(O)C(CC(C)C)NC(=O)C(NC(=O)COc1ccc2ccccc2c1)c1ccccc1` (stereo not given), 6.70. Same read-out and setting: in the case of `CCCCNC(=O)CC(O)C(CC(C)C)NC(=O)C(NC(=O)Cc1cc(OC)ccc1C)c1ccccc1` (stereo not given) it was 5.68. The same measure, in the same setting: in the case of `CCCCNC(=O)C[C@H](O)[C@H](Cc1ccccc1)NC(=O)[C@@H](NC(=O)COc1ccc2ccccc2c1)C(C)CC` (stereo not given in full) it was 6.25.
